Reference: patent US11517591B2, “Immunogenic peptides specific to BCMA and TACI antigens” (Dana-Farber Cancer Institute, Inc., priority 2017, dated 2022)

Experiments:
[1] = system: peripheral blood mononuclear cells from HLA-A2+ normal donors; experiment: Generation and phenotypic characterization of BCMA-CTL stimulated with free or nanoparticle-encapsulated BCMA peptide; format: cell-based, human
Description: BCMA peptide-specific CTL (BCMA-CTL) were generated ex vivo by repeated stimulation of peripheral blood mononuclear cells isolated from HLA-A2^+ normal donors' with (1) HLA-A2 specific BCMA immunogenic peptide (50 ug/ml), (2) a blank nanoparticle (PLGA or liposome) without peptide, or (3) the BCMA peptide (50 ug/ml) encapsulated nanoparticle (PLGA/peptide or liposome/peptide). PBMC were cultured in DMEM medium supplemented with 10% human AB serum (BioWhittaker) and pulsed weekly with the appropriate BCMA peptide for a total of 4 or 5 cycles. IL-2 (50 U/ml) was added to the T cell cultures two days after the second stimulation.
BCMA peptide-specific CD8^+ CTL were evaluated for Naïve: Memory cell development and expression of CD28 co-stimulatory molecule by flow cytometry. In addition, BCMA peptide-specific CD8^+ CTL were assessed within the cultures by staining with BCMA peptide-specific Tetramer-PE. Following tetramer staining at 37° C. for 30 min, cells were washed and stained with CD8-FITC and CD28-APC mAbs. After staining, cells were washed, fixed in 2% paraformaldehyde, acquired using a LSRII Fortessa™ flow cytometer, and analyzed using FACS DIVA™ v8.0 (BD) or FlowJo v10.0.7 (Tree star, Ashland, Oreg.) software. BCMA-CTL were analyzed for the presence\frequency of specific memory (central memory, effector memory)/non-memory populations within the total gated CD3^+CD8^+ T cell population.

[2] = target: T1, HLA-A2 molecule (Homo sapiens, UniProt P04439, D140Y/D185E/D98H/E176V/E277Q/G131W/G231S/I119V/I121R/I166T/I218V/L300P/L318F/N151K/N90K/P208A/P217A/Q86G/Q94H/R138H/R169H/T345S); experiment: Peptide/HLA-A2 complex stability on peptide-loaded T2 cells post-brefeldin A; format: binding
T1 construct: endogenous in cells; host or cells: T2 cell line (human B and T cell hybrid), provided by Dr. J. Molldrem
Description: The native and heteroclitic BCMA and TACI peptides were examined for HLA-A2 binding stability using the T2 cell line. T2 cells were pulsed with the respective peptide. After overnight incubation, the cells were washed to remove unbound peptide; they were evaluated for binding affinity as shown above and stability as following. The cells were incubated with 10 μg/ml Brefeldin A (Sigma) at 37° C. and 5% CO2 for 1 hour to block cell surface expression of newly synthesized HLA-A2 molecules. Peptide/HLA-A2 binding stability was evaluated at 0, 2, 4, 6 and 18 hours post-Brefeldin A treatment. Following the incubation period, the cells were harvested, washed, stained with mouse anti-human HLA-A2-FITC mAb and analyzed by flow cytometry. […] Therefore, the Heteroclitic #4 BCMA72-80 (YLMFLLRKI (SEQ ID NO: 13)) and Heteroclitic #3. TACI154-162 (YLSADQVAL (SEQ ID NO: 16) peptides were selected for further evaluation of their immunogenic potential to generate MM-specific cytotoxic T cells (CTLs).
(§1) T2 cells were pulsed overnight with various doses of peptide plus β2-microglobulin (3 μg/ml) (Sigma, St Louis, Mo.). Following overnight incubation, the cells were stained with HLA-A2-PE mAb and analyzed using a FACSCanto™ flow cytometer (BD). Peptide/HLA-A2 complex stability was measured on peptide loaded T2 cells at 0, 2, 4, 6 and 14 hours post-brefeldin A treatment by staining with HLA-A2-PE mAb and flow cytometric analysis.
as §1, with “concentrations” for “doses”, “The stability of peptide/HLA-A2” for “Peptide/HLA-A2”, “binding” for “stability”, “treatment followed” for “treatment”

[3] = after the 5-cycle of peptide stimulation

YLMFLLRKI [heteroclitic BCMA72-80, heteroclitic BCMA peptide]
total CD45RO+ memory CTL ([1]; 3′ stimulation): 15.3% | total CD45RO+ memory CTL ([1]; 4′ stimulation): 19.5% | total CD45RO+ memory CTL ([1]; 5′ stimulation): 79.0% | central memory (CM) CD8+ T cell subset ([1]; after 1 cycle of stimulation): 2.9% | effector memory (EM) CD8+ T cell subset ([1]; after 1 cycle of stimulation): 5.7% | central memory (CM) CD8+ T cell subset ([1]; after 3 cycles of stimulation): 12.4% | effector memory (EM) CD8+ T cell subset ([1]; after 3 cycles of stimulation): 11.0% | central memory (CM) CD8+ T cell subset [1, 3]: 3.5% | effector memory (EM) CD8+ T cell subset [1, 3]: 95.4% | HLA-A2 binding stability, heteroclitic vs native peptide ([2]; 50 ug/ml, 0, 2, 4, 6 and 18 hours post-Brefeldin A, Example 4, FIGS. 6 and 7): significant improvement in their HLA-A2 affinity at all the time points evaluated | HLA-A2 affinity and stability at each time point, compared with HIV-Gag77-85 positive control ([2]; Example 12): highest level of HLA-A2 affinity and stability | HLA-A2 stability of heteroclitic vs native BCMA peptide ([2]; Example 12): further enhanced
